Reference: patent US10124004B2, “Pyrido[3,4-d]pyrimidine derivative and pharmaceutically acceptable salt thereof” (Teijin Pharma Limited, priority 2015, dated 2018)

Columns and labels:
[1] = biological target: T1, CDK2/cyclin A2 (Homo sapiens, UniProt P24941); assay: Human CDK2/cyclin A2 inhibitory activity (QS S Assist CDK2/Cyclin A2_FP Kit, IMAP fluorescence polarization); assay type: biochemical; settings: Human CDK2/cyclin A2 inhibitory activity; read-out: CDK2 Activity symbol
T1 construct: purchased Carna Biosciences, Inc. QS S Assist CDK2/Cyclin A2_FP Kit
In short: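 Kinase activity read as fluorescence polarization (485/535 nm) after phosphorylated fluorescent substrate binds IMAP reagent (30 min, RT, dark). Enzyme (2.5 ng/well) reacted 60 min at RT with ATP/substrate/metal in HEPES pH 7.4 buffer with Tween 20 and DTT; no-enzyme wells define 0% activity; IC50 by curve fit.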

[2] = biological target: T2, CDK4/cyclin D3 (Homo sapiens, UniProt P11802); assay: Human CDK4/cyclin D3 inhibitory activity (QS S Assist CDK4/Cyclin D3_FP Kit, IMAP fluorescence polarization); assay type: biochemical; settings: Human CDK4/cyclin D3 inhibitory activity; read-out: CDK4 Activity symbol
T2 construct: purchased Carna Biosciences, Inc. QS S Assist CDK4/Cyclin D3_FP Kit
In short: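 Percent inhibition, relative to DMSO with and without enzyme, was curve-fitted to give IC50 from polarization (ex 485, em 535 nm). The 45-min room-temperature reaction used 12.5-25 ng/well enzyme, kit ATP/substrate/metal mix, and HEPES pH 7.4 buffer with Tween20 and DTT, followed by 30-min IMAP binding in the dark.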

T2 sequence (P11802 whole entry): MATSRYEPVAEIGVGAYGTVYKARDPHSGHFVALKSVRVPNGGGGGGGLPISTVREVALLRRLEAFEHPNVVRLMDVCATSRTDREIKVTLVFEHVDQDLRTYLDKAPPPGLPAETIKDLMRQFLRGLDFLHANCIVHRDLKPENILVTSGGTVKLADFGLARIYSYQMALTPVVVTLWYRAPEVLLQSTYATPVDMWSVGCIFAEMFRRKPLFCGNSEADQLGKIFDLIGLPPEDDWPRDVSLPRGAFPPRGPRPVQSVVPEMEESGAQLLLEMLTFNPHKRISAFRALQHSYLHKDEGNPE
T2 sequence (P30281 whole entry partner): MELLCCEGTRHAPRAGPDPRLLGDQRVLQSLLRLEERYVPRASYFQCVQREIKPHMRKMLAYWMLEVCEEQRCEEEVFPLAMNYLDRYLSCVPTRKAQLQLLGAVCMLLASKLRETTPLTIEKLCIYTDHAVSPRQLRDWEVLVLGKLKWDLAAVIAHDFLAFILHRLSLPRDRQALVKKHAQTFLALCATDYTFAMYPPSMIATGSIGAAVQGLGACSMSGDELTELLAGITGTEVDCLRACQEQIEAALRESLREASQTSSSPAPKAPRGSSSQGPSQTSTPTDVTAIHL

| SMILES | IC50 [1] [nM] | IC50 [2] [nM] |
| --- | --- | --- |
| CC(C)Nc1nc(C(F)F)cc2cnc(Nc3ccc(C4CCC(O)CC4)cn3)nc12 (stereo not drawn) [Compound 107] | ≥ 100 | 10 to 100 |
| CC(C)Nc1nc(C(F)F)cc2cnc(Nc3ccc(CCCCO)cn3)nc12 [Compound 108] | 10 to 100 | < 10 |
| CC(C)Nc1nc(C(F)F)cc2cnc(Nc3ccc(C(=O)NCCO)cn3)nc12 [Compound 109] | ≥ 100 | 10 to 100 |
| CC(C)Nc1nc(C(F)F)cc2cnc(Nc3ccc(CN4CCN(S(=O)(=O)N(C)C)CC4)cn3)nc12 [Compound 114] | ≥ 100 | 10 to 100 |
| CC(C)Nc1nc(C(F)F)cc2cnc(Nc3ccc(CN4CCN(S(C)(=O)=O)CC4)cn3)nc12 [Compound 115] | ≥ 100 | < 10 |
| CC(C)Nc1nc(C(F)F)cc2cnc(Nc3ccc(CN4CCN(CC(F)(F)F)CC4)cn3)nc12 [Compound 116] | ≥ 100 | 10 to 100 |
| CC(C)Nc1nc(C(F)F)cc2cnc(Nc3ccc(CN4CCC(C(C)(C)O)CC4)cn3)nc12 [Compound 118] | 10 to 100 | < 10 |
| CC(C)Nc1nc(C(F)F)cc2cnc(Nc3ccc(O[C@H]4CC[C@@H](O)CC4)cn3)nc12 [Compound 119] | ≥ 100 | 10 to 100 |
| CC(C)Nc1nc(C(F)F)cc2cnc(Nc3ccc(O[C@H]4CC[C@H](O)CC4)cn3)nc12 [Compound 120] | ≥ 100 | 10 to 100 |
| CC(C)Nc1nc(C(F)F)cc2cnc(Nc3ccc(OCCCN4CCCC4=O)cn3)nc12 [Compound 123] | ≥ 100 | 10 to 100 |
| CC(=O)NCc1ccc(Nc2ncc3cc(C(F)F)nc(NC(C)C)c3n2)nc1 [Compound 124] | ≥ 100 | 10 to 100 |
| CC(C)Nc1nc(C(F)F)cc2cnc(Nc3ccc(CN4CC(O)C4)cn3)nc12 [Compound 126] | ≥ 100 | ≥ 100 |
| CC(C)Nc1nc(C(F)F)cc2cnc(Nc3ccc(CN4CCCC(CO)C4)cn3)nc12 (stereo not drawn) [Compound 127] | 10 to 100 | < 10 |
| CC(C)Nc1nc(C(F)F)cc2cnc(Nc3ccc(CN4CCCC(O)C4)cn3)nc12 (stereo not drawn) [Compound 128] | 10 to 100 | < 10 |
| CC(C)Nc1nc(C(F)F)cc2cnc(Nc3ccc(CN4CCC(C(=O)O)CC4)cn3)nc12 [Compound 129] | 10 to 100 | < 10 |
| CC(C)Nc1nc(C(F)F)cc2cnc(Nc3ccc(CN4CCNC(=O)C4)cn3)nc12 [Compound 131] | 10 to 100 | < 10 |
| CC(C)Nc1nc(C(F)F)cc2cnc(Nc3ccc(CCCC(N)=O)cn3)nc12 [Compound 135] | ≥ 100 | < 10 |
| CC(C)Nc1nc(C(F)F)cc2cnc(Nc3ccc(CNS(C)(=O)=O)cn3)nc12 [Compound 140] | ≥ 100 | < 10 |
| CC(C)Nc1nc(C(F)F)cc2cnc(Nc3ccc(CN4CCC(O)CC4)cn3)nc12 [Compound 142] | 10 to 100 | < 10 |
| CC(C)Nc1nc(C(F)F)cc2cnc(Nc3ccc(CN(CC4CCOCC4)S(C)(=O)=O)cn3)nc12 [Compound 143] | ≥ 100 | 10 to 100 |
| CC(=O)N(Cc1ccc(Nc2ncc3cc(C(F)F)nc(NC(C)C)c3n2)nc1)C[C@H]1CCCO1 [Compound 145] | 10 to 100 | < 10 |
| CC(=O)N(Cc1ccc(Nc2ncc3cc(C(F)F)nc(NC(C)C)c3n2)nc1)C[C@@H]1CCCO1 [Compound 146] | ≥ 100 | < 10 |
| CC(C)Nc1nc(C(F)F)cc2cnc(Nc3ccc(CN4CCC(CO)CC4)cn3)nc12 [Compound 147] | 10 to 100 | < 10 |
| CC(C)Nc1nc(C(F)F)cc2cnc(Nc3ccc(CN(C[C@H]4CCCO4)S(C)(=O)=O)cn3)nc12 [Compound 148] | ≥ 100 | 10 to 100 |
| CC(C)Nc1nc(C(F)F)cc2cnc(Nc3ccc(CN(C[C@@H]4CCCO4)S(C)(=O)=O)cn3)nc12 [Compound 149] | ≥ 100 | 10 to 100 |
| CC(C)Nc1nc(C(F)F)cc2cnc(Nc3ccc(CCNS(C)(=O)=O)cn3)nc12 [Compound 151] | 10 to 100 | < 10 |
| CC(=O)NCCCc1ccc(Nc2ncc3cc(C(F)F)nc(NC(C)C)c3n2)nc1 [Compound 152] | 10 to 100 | < 10 |
| CC(C)Nc1nc(C(F)F)cc2cnc(Nc3ccc(CCCNS(C)(=O)=O)cn3)nc12 [Compound 153] | 10 to 100 | < 10 |

Now from value to molecule:

| IC50 [1] [nM] | IC50 [2] [nM] | SMILES |
| --- | --- | --- |
| ≥ 100 | < 10 | CC(O)c1cc2cnc(Nc3ccc(N4CCNCC4)cn3)nc2c(NC(C)c2cn[nH]c2)n1 (stereo not drawn) [Compound 106] |
| ≥ 100 | ≥ 100 | CC(C)Nc1nc(C(F)F)cc2cnc(Nc3ccc(-c4ccc(O)cc4)cn3)nc12 [Compound 110] |
| ≥ 100 | 10 to 100 | CC(C)Nc1nc(C(F)F)cc2cnc(Nc3ccc(CCC(=O)O)cn3)nc12 [Compound 111] |
| 10 to 100 | 10 to 100 | CC(C)Nc1nc(C(F)F)cc2cnc(Nc3ccc(S(=O)(=O)CCCO)cn3)nc12 [Compound 112] |
| ≥ 100 | < 10 | CC(C)Nc1nc(C(F)F)cc2cnc(Nc3ccc(CN4CCS(=O)(=O)CC4)cn3)nc12 [Compound 113] |
| ≥ 100 | < 10 | CC(=O)N1CCN(Cc2ccc(Nc3ncc4cc(C(F)F)nc(NC(C)C)c4n3)nc2)CC1 [Compound 117] |
| 10 to 100 | < 10 | CC(C)Nc1nc(C(F)F)cc2cnc(Nc3ccc(CCC(N)=O)cn3)nc12 [Compound 121] |
| ≥ 100 | 10 to 100 | CC(C)Nc1nc(C(F)F)cc2cnc(Nc3ccc(OCC(C)(C)CO)cn3)nc12 [Compound 122] |
| 10 to 100 | < 10 | CC(C)Nc1nc(C(F)F)cc2cnc(Nc3ccc(CN4CCC(C(N)=O)CC4)cn3)nc12 [Compound 125] |
| 10 to 100 | < 10 | CC(C)Nc1nc(C(F)F)cc2cnc(Nc3ccc(CN4CCC(N(C)C)CC4)cn3)nc12 [Compound 130] |
| 10 to 100 | < 10 | CC(C)Nc1nc(C(F)F)cc2cnc(Nc3ccc(CC(N)=O)cn3)nc12 [Compound 132] |
| ≥ 100 | 10 to 100 | CC(C)Nc1nc(C(F)F)cc2cnc(Nc3ccc(CC(=O)O)cn3)nc12 [Compound 133] |
| 10 to 100 | < 10 | CC(C)Nc1nc(C(F)F)cc2cnc(Nc3ccc(CCO)cn3)nc12 [Compound 134] |
| ≥ 100 | 10 to 100 | CC(C)Nc1nc(C(F)F)cc2cnc(Nc3ccc(CCCC(=O)O)cn3)nc12 [Compound 136] |
| 10 to 100 | < 10 | CC(C)Nc1nc(C(F)F)cc2cnc(Nc3ccc(N4CC[C@H](O)CC4=O)cn3)nc12 [Compound 137] |
| 10 to 100 | < 10 | CC(C)Nc1nc(C(F)F)cc2cnc(Nc3ccc(CNC(N)=O)cn3)nc12 [Compound 138] |
| 10 to 100 | < 10 | CC(=O)N(C)Cc1ccc(Nc2ncc3cc(C(F)F)nc(NC(C)C)c3n2)nc1 [Compound 139] |
| ≥ 100 | < 10 | CC(C)Nc1nc(C(F)F)cc2cnc(Nc3ccc(CN(C)S(C)(=O)=O)cn3)nc12 [Compound 141] |
| ≥ 100 | < 10 | CC(=O)N(Cc1ccc(Nc2ncc3cc(C(F)F)nc(NC(C)C)c3n2)nc1)CC1CCOCC1 [Compound 144] |
| 10 to 100 | < 10 | CC(=O)NCCc1ccc(Nc2ncc3cc(C(F)F)nc(NC(C)C)c3n2)nc1 [Compound 150] |
